Values joined by “and” are separate entries in the source; they are usually repeats but may differ in a detail not shown here. Identical values can stand only once. Toxic doses and inconclusive results are not listed.

This assay has as its system P388 leukemia ip, CD2F1 mice, survival T/C. Put plainly: NCI In Vivo Anticancer Drug Screen. Data for tumor model P388 Leukemia (intraperitoneal) in CD2F1 (CDF1) mice. As to conditions: endpoint: median survival time, higher = longer survival. Put shortly:
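Mice carrying the transplanted tumor received test compound or vehicle. Survival was recorded in each group, and the value is the treated-group measurement divided by that of the vehicle-treated control group.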

The mark [1] stands for this setting: dose: 12.5 mg/kg/injection, schedule: Q01DX009 (ip), vehicle: Klucel (hydroxypropylcellulose) (HPC).
Where [2] appears, read: dose: 25.0 mg/kg/injection, schedule: Q01DX009 (ip), vehicle: Klucel (hydroxypropylcellulose) (HPC).
Setting [3] is: dose: 50.0 mg/kg/injection, schedule: Q01DX009 (ip), vehicle: Klucel (hydroxypropylcellulose) (HPC).
[4] abbreviates: dose: 100.0 mg/kg/injection, schedule: Q01DX009 (ip), vehicle: Klucel (hydroxypropylcellulose) (HPC).
The mark [5] stands for this setting: dose: 50.0 mg/kg/injection, schedule: Q01DX009 (ip), vehicle: saline with Tween-80.
Setting [6] is: dose: 100.0 mg/kg/injection, schedule: Q01DX009 (ip), vehicle: saline with Tween-80.
[7] abbreviates: dose: 50.0 mg/kg/injection, schedule: Q01DX005 (ip), vehicle: saline with Tween-80.
Setting [8] is: dose: 100.0 mg/kg/injection, schedule: Q01DX005 (ip), vehicle: saline with Tween-80.
Where [9] appears, read: dose: 100.0 mg/kg/injection, schedule: Q04DX002 (ip), vehicle: saline with Tween-80.

As for `O=c1ccn(C2OC(CO)C(O)C2O)c(=O)[nH]1` (stereo unspecified), the T/C was 100 % of control (dose: 25.0 mg/kg/injection, schedule: Q01DX009 (ip), vehicle: water); 90 % of control (dose: 32.0 mg/kg/injection, schedule: Q01DX009 (ip), vehicle: Klucel (hydroxypropylcellulose) (HPC)); 86 % of control and 87 % of control (dose: 32.0 mg/kg/injection, schedule: Q01DX009 (ip), vehicle: saline); 108 % of control (dose: 50.0 mg/kg/injection, schedule: Q01DX009 (ip), vehicle: saline); 100 % of control (dose: 50.0 mg/kg/injection, schedule: Q01DX009 (ip), vehicle: water); 90 % of control (dose: 64.0 mg/kg/injection, schedule: Q01DX009 (ip), vehicle: Klucel (hydroxypropylcellulose) (HPC)). In addition, the T/C runs as follows: (dose: 100.0 mg/kg/injection, schedule: Q01DX009 (ip), vehicle: saline) 94 % of control and 115 % of control; (dose: 100.0 mg/kg/injection, schedule: Q01DX009 (ip), vehicle: water) 106 % of control; (dose: 128.0 mg/kg/injection, schedule: Q01DX009 (ip), vehicle: Klucel (hydroxypropylcellulose) (HPC)) 88 % of control; (dose: 200.0 mg/kg/injection, schedule: Q01DX009 (ip), vehicle: saline) 94 % of control and 112 % of control; (dose: 200.0 mg/kg/injection, schedule: Q01DX009 (ip), vehicle: water) 106 % of control; (dose: 256.0 mg/kg/injection, schedule: Q01DX009 (ip), vehicle: Klucel (hydroxypropylcellulose) (HPC)) 98 % of control. Also, the T/C reads like this: (dose: 400.0 mg/kg/injection, schedule: Q01DX009 (ip), vehicle: saline) 103 % of control and 100 % of control; (dose: 400.0 mg/kg/injection, schedule: Q01DX009 (ip), vehicle: water) 108 % of control; (dose: 512.0 mg/kg/injection, schedule: Q01DX009 (ip), vehicle: Klucel (hydroxypropylcellulose) (HPC)) 98 % of control; (dose: 800.0 mg/kg/injection, schedule: Q01DX009 (ip), vehicle: saline) 98 % of control; (dose: 1024.0 mg/kg/injection, schedule: Q01DX009 (ip), vehicle: saline) 100 % of control and 89 % of control; (dose: 1600.0 mg/kg/injection, schedule: Q01DX009 (ip), vehicle: saline) 98 % of control.

For `Nc1nnc2nc(C3(c4nc5nnc(N)n5[nH]c4=O)CCCC3=O)c(=O)[nH]n12`, the T/C is, setting by setting: (dose: 50.0 mg/kg/injection, schedule: Q01DX005 (ip), vehicle: saline) 106 % of control; (dose: 100.0 mg/kg/injection, schedule: Q01DX005 (ip), vehicle: saline) 94 % of control; (dose: 200.0 mg/kg/injection, schedule: Q01DX005 (ip), vehicle: saline) 106 % of control.

`O=Cc1cc2ccc3ccccc3c2[nH]1`: for the setting “dose: 200.0 mg/kg/injection, schedule: Q01DX001 (ip), vehicle: saline with Tween-80”, the T/C is 90 % of control.

Consider `COc1oc(C2C/C(=C/C(C)=C/C(C)=C/C(C)=C/c3ccc([N+](=O)[O-])cc3)CO2)c(C)c(=O)c1C` (stereo unspecified), for which the T/C is, setting by setting: (dose: 0.25 mg/kg/injection, schedule: Q01DX005 (ip), vehicle: saline) 116 % of control; (dose: 0.5 mg/kg/injection, schedule: Q01DX005 (ip), vehicle: saline) 107 % of control; (dose: 1.0 mg/kg/injection, schedule: Q01DX005 (ip), vehicle: saline) 113 % of control; (dose: 2.0 mg/kg/injection, schedule: Q01DX005 (ip), vehicle: saline) 121 % of control.

For `CCCCCC[N+]1(CC)CCCCC1`, the T/C is 107 % of control (dose: 6.25 mg/kg/injection, schedule: Q01DX009 (ip), vehicle: saline); 105 % of control (dose: 12.5 mg/kg/injection, schedule: Q01DX009 (ip), vehicle: saline); 107 % of control (dose: 25.0 mg/kg/injection, schedule: Q01DX009 (ip), vehicle: saline).

For the compound `CC([NH-])C[NH-].O=C(O)C(=O)O.[Pt+2]`, the T/C (dose: 6.25 mg/kg/injection, schedule: Q04DX002 (ip), vehicle: saline with Tween-80) is 151 % of control and the T/C (dose: 6.25 mg/kg/injection, schedule: Q04DX002 (ip), vehicle: saline) is 150 % of control.

`C=C1C(=O)OC2CC1C(OC(=O)/C=C/c1ccccc1)C/C(C)=C/CC/C(C)=C/CCC2(C)O` (stereo unspecified): the T/C runs as follows: under setting [1], 113 % of control; under setting [2], 113 % of control; under setting [3], 118 % of control; under setting [4], 110 % of control.

Take `CC1(c2ccc(-c3ccccc3)cc2)NC(=O)NC1=O` (stereo unspecified): the T/C runs as follows: (dose: 25.0 mg/kg/injection, schedule: Q01DX009 (ip), vehicle: saline with Tween-80) 91 % of control; under setting [5], 86 % of control; under setting [6], 91 % of control.

With `CCC1(C)NN=C2C(=CC=C3NNC(C)(CC)N32)n2cccc21` (stereo unspecified), the T/C was 102 % of control under setting [7]; 110 % of control under setting [8]; 119 % of control (dose: 200.0 mg/kg/injection, schedule: Q01DX005 (ip), vehicle: saline with Tween-80).

As to `COc1cc2c(cc1OC)C(CSC)Cc1cc(OC)c(OC)cc1N(C)CCC2` (stereo unspecified), the T/C is, setting by setting: (dose: 100.0 mg/kg/injection, schedule: Q04DX003 (ip), vehicle: saline with Tween-80) 102 % of control; (dose: 200.0 mg/kg/injection, schedule: Q04DX003 (ip), vehicle: saline with Tween-80) 93 % of control; (dose: 400.0 mg/kg/injection, schedule: Q04DX003 (ip), vehicle: saline with Tween-80) 93 % of control.

`CC1=C(C(=O)CC(=O)Nc2ccc(Cl)c(Cl)c2)Sc2ccccc2N1`: the T/C was 96 % of control (dose: 60.0 mg/kg/injection, schedule: Q01DX005 (ip), vehicle: saline with Tween-80); 92 % of control (dose: 120.0 mg/kg/injection, schedule: Q01DX005 (ip), vehicle: saline with Tween-80); 99 % of control (dose: 240.0 mg/kg/injection, schedule: Q01DX005 (ip), vehicle: saline with Tween-80).

As for `CCN(CC)C(=O)c1nc(-c2cccc3ccccc23)no1`, the T/C runs as follows: under setting [3], 100 % of control; under setting [4], 97 % of control; (dose: 200.0 mg/kg/injection, schedule: Q01DX009 (ip), vehicle: Klucel (hydroxypropylcellulose) (HPC)) 98 % of control.

With `COC(=O)c1ccc(SCC2(CCN3C(=O)c4ccccc4C3=O)OCCO2)cc1`, the T/C reads like this: (dose: 100.0 mg/kg/injection, schedule: Q04DX003 (ip), vehicle: Klucel (hydroxypropylcellulose) (HPC)) 97 % of control; (dose: 200.0 mg/kg/injection, schedule: Q04DX003 (ip), vehicle: Klucel (hydroxypropylcellulose) (HPC)) 96 % of control; (dose: 400.0 mg/kg/injection, schedule: Q04DX003 (ip), vehicle: Klucel (hydroxypropylcellulose) (HPC)) 88 % of control.

On to `O=C(O)C(=O)O.[NH-]C1CCCC1[NH-].[Pt+2]` (stereo unspecified), for which the T/C (dose: 12.5 mg/kg/injection, schedule: Q04DX002 (ip), vehicle: saline with Tween-80) is 166 % of control and the T/C (dose: 12.5 mg/kg/injection, schedule: Q04DX002 (ip), vehicle: saline) is 176 % of control.

For the compound `COc1ccc(C2c3cc4c(cc3OC(O)C2C)OCO4)c(OC)c1` (stereo unspecified), the T/C was 97 % of control under setting [9]; 97 % of control (dose: 200.0 mg/kg/injection, schedule: Q04DX002 (ip), vehicle: saline with Tween-80); 95 % of control (dose: 400.0 mg/kg/injection, schedule: Q04DX002 (ip), vehicle: saline with Tween-80).

As for `NNC(=O)c1ccc(NC(=O)CSc2nc3ccccc3s2)cc1`, the T/C by setting is: under setting [1], 99 % of control; under setting [2], 102 % of control; under setting [3], 101 % of control.

As for `C[Si](Cl)(CCl)CCl`, the T/C is, setting by setting: under setting [5], 118 % of control; under setting [6], 116 % of control; (dose: 200.0 mg/kg/injection, schedule: Q01DX009 (ip), vehicle: saline with Tween-80) 118 % of control.

For `C=C1C[C@](C(N)=O)(C2OC3OC(C)(C)OC3C2OCc2ccccc2)OC1=O` (stereo partly specified), the T/C is 103 % of control (dose: 25.0 mg/kg/injection, schedule: Q01DX005 (ip), vehicle: saline with Tween-80); 100 % of control under setting [7]; 96 % of control (dose: 100.0 mg/kg/injection, schedule: Q01DX001 (ip), vehicle: saline with Tween-80); 92 % of control under setting [8].

Turning to `C=C1C(=O)OC2C1CCC(C)C1C=CC(=O)C12C` (stereo unspecified), the T/C is 115 % of control (dose: 25.0 mg/kg/injection, schedule: Q04DX002 (ip), vehicle: saline with Tween-80); 114 % of control (dose: 50.0 mg/kg/injection, schedule: Q04DX002 (ip), vehicle: saline with Tween-80); 119 % of control under setting [9].
